Laboratory results reported in US20250032456A1, “USE OF L-ERGOTHIONEINE TO AMELIORATE AND PREVENT AGE-RELATED VITREOUS DEGENERATION” (NANJING NUTRABUILDING BIO-TECH CO., LTD., priority 2021, published 2025).

What was measured:
[1] = test system: rabbits' vitreous gel; assay: Slit-lamp biomicroscopy of vitreous structure in rabbits with riboflavin/white-light induced vitreous liquefaction; type: in vivo, rabbit; details: 2 or 10 mg/kg/d by gavage once daily for 7 months, especially in higher dose
Experimental: Fifteen young pigmented rabbits weighing 2.3-4.1 kg and aging 2.5-3 years were used in this experiment. At the onset of the investigation, each eye of every rabbit was examined by slit-lamp biomicroscopy and +60 diopter fundus lens through dilated pupils (2% atropine eye drops) to exclude any preexisting abnormalities. After slit-lamp examination, one drop of 0.5% proparacaine hydrochloride was applied for topic anesthesia, and then 0.1 ml of riboflavin (2×10^^−4 M) was injected through a Millipore filter unit into the central vitreous of both eyes, using a 30-gauge needle. All eyes were then irradiated with white light (1.06×10^15 photons sec-1 cm-2) generated by a carousel slide projector without a lens at a distance of 60 cm for 6 hours. During irradiation, the exposed eyes were frequently treated with topical balanced salt solution (BSS) to prevent corneal drying. Their eyes were examined by using slit-lamp biomicroscopy next day, to confirm if they have serious vitreous liquefaction. They were randomly divided into three groups: (1) non-supplement group (Con, n=5); (2) L-ergothioneine supplement group with low dosage (L-ergothioneine, 2 mg/kg/d, n=5); (3) L-ergothioneine supplement group with high dosage (L-ergothioneine, 10 mg/kg/d, n=5). Some […] were administered L-ergothioneine once daily by gavage in normal saline solution for 7 months. […]

[2] = test system: rabbits' vitreous gel; assay: Vitreous gel content by gel-liquid separation of rabbit vitreous samples; type: in vivo; details: 2 or 10 mg/kg/d by gavage for 7 months; compared with non-supplement group, ***p<0.001
Experimental: Fifteen young pigmented rabbits weighing 2.3-4.1 kg and aging 2.5-3 years were used in this experiment. At the onset of the investigation, each eye of every rabbit was examined by slit-lamp biomicroscopy and +60 diopter fundus lens through dilated pupils (2% atropine eye drops) to exclude any preexisting abnormalities. After slit-lamp examination, one drop of 0.5% proparacaine hydrochloride was applied for topic anesthesia, and then 0.1 ml of riboflavin (2×10^^−4 M) was injected through a Millipore filter unit into the central vitreous of both eyes, using a 30-gauge needle. All eyes were then irradiated with white light (1.06×10^15 photons sec-1 cm-2) generated by a carousel slide projector without a lens at a distance of 60 cm for 6 hours. During irradiation, the exposed eyes were frequently treated with topical balanced salt solution (BSS) to prevent corneal drying. Their eyes were examined by using slit-lamp biomicroscopy next day, to confirm if they have serious vitreous liquefaction. […] The weight of the vitreous gel was determined, and its percentage was calculated as follows: vitreous gel (%)=(separated vitreous gel wet wt (g)/initial vitreous wet wt (g))×100%.

[3] = test system: Reactive oxygen species (ROS) of rabbits' lens; assay: Reactive oxygen species quantified by fluorescence spectroscopy using 2',7'-dichlorofluorescein diacetate; type: in vivo, rabbit; details: 2 or 10 mg/kg/d by gavage for 7 months; compared with non-supplement group, ***p<0.001
Experimental: Fifteen young pigmented rabbits weighing 2.3-4.1 kg and aging 2.5-3 years were used in this experiment. At the onset of the investigation, each eye of every rabbit was examined by slit-lamp biomicroscopy and +60 diopter fundus lens through dilated pupils (2% atropine eye drops) to exclude any preexisting abnormalities. After slit-lamp examination, one drop of 0.5% proparacaine hydrochloride was applied for topic anesthesia, and then 0.1 ml of riboflavin (2×10^^−4 M) was injected through a Millipore filter unit into the central vitreous of both eyes, using a 30-gauge needle. All eyes were then irradiated with white light (1.06×10^15 photons sec-1 cm-2) generated by a carousel slide projector without a lens at a distance of 60 cm for 6 hours. During irradiation, the exposed eyes were frequently treated with topical balanced salt solution (BSS) to prevent corneal drying. […]
Antioxidant capacity of the lens was measured using an assay based on the ability of the sample to inhibit the oxidation of 2,2′-azino-di-[3-ethylbenzthiazoline sulfonate]+ (ABTS) by metmyoglobin. The amount of ABTS+ produced was measured in terms of the decrease in absorbance caused by the antioxidants in the sample. Reactive oxygen species (ROS) were quantified by fluorescence spectroscopy using 2′,7′-dichlorofluorescein diacetate.

C[N+](C)(C)[C@@H](Cc1c[nH]c(=S)[nH]1)C(=O)[O-] [L-ergothioneine]
rabbits' vitreous gel observed microscopically (slit-lamp biomicroscopy) [1]: significantly increased
vitreous gel content (%) of the rabbits' eye (FIG. 1) [2]: could alleviate vitreous depolymerization and liquefaction
ROS value of rabbits' lens (FIG. 2) [3]: could scavenge chronic ROS directly and radically
